{"source": "paper PMC10893053", "about": "(Pharmaceutics, 2024)", "key": {"[1]": {"assay": "Equilibrium solubility of CBZ, shake-flask method, HPLC", "format": "physicochemical", "conditions": "phosphate buffer, aqueous buffer, thermodynamic from solid; pure buffer pH 6.8; 37.0±0.1 °C", "method": "The experimental temperature of 37 °C corresponded to the standard temperature of a healthy human. […] The vials were continuously shaken in an air thermostat to achieve the equilibrium. After this, the suspensions were settled during no less than 6 h to avoid supersaturation [33]. […] The experimental results are presented as an average of at least three replicated experiments.\nThe samples of the solutions were analyzed via HPLC using the Shimadzu Prominence model LC-20 AD, equipped with a PDA detector and a C-18 column Luna® (150 mm × 4.6 mm i.d., 5 μm particle size, and 100 Å pore size) (Albert-Hahn-Str. 6-10, Duisburg, Germany). The column temperature was 40 °C. Eluent acetonitrile:water at a ratio of 40:60 v/v was used. An isocratic regime at a flow rate of 1 mL·min^−1 was applied. The injection volume was 20 μL."}, "[2]": {"assay": "CBZ/F127 association constant (Ka) from phase solubility diagram", "format": "physicochemical", "conditions": "buffer pH 6.8, 37 °C", "source_text": "To this end, in order to assess the concentration of F127 in the micellar form, the difference between the total F127 (CF127) concentration and the CMC was used.\nThe CMC value of F127 (Section 3.1) was used to calculate F127 micellar concentrations as the differences between the total CF127 and the CMC."}, "[3]": {"assay": "Stability constant of CBZ/SBE-β-CD complex (Kc) from phase solubility diagram", "format": "physicochemical", "conditions": "buffer pH 6.8, 37 °C"}, "[4]": {"assay": "Micelle (F127)/buffer apparent partition coefficient of CBZ", "format": "physicochemical", "conditions": "buffer pH 6.8, 37 °C", "experimental": "(§1) Additionally, for the sake of the reliable comparison of the partition within the micellar and cyclodextrin systems, the concentrations of the excipient (F127 or SBE-β-CD) on the X-axis were expressed in kg∙L^−1. From the results of the partition coefficients determinations, the thermodynamics of solubilization by F127 and SBE-β-CD was disclosed by the excess free Gibbs energy ( ΔGS37°C ) evaluation, using the equation:(12) ΔGS37°C=−RT·lnKexcipient/buf\n(§2) In the case of cyclodextrins, the nonspecific interaction between the solute and the cavity of cyclodextrin takes place, and the solubilization process may be attributed to the partition of solutes from the aqueous buffer into the cyclodextrin cavity. In this work, the partition from the micellar pseudo phase (F127) to the aqueous buffer pH 6.8, as well as from SBE-β-CD to the buffer was studied using the plots of the linear dependences (Figure S4), plotted according to Equations (10) and (11). The calculations were conducted in two variants."}, "[5]": {"assay": "Cyclodextrin (SBE-β-CD)/buffer apparent partition coefficient of CBZ", "format": "physicochemical", "conditions": "buffer pH 6.8, 37 °C", "experimental": "as §1, §2"}, "[6]": {"assay": "logP, partition of CBZ from water to 1-octanol", "format": "physicochemical", "conditions": "1-octanol/water, pH 7.4; after conversion from the molar units to the mass units"}, "[7]": {"assay": "In vitro permeability, Franz diffusion cell, regenerated cellulose membrane", "format": "in vitro ADME", "conditions": "37 °C; for C0free (free CBZ concentration in the donor solution, C0free=C0·ffree): RC membrane experiment; for Papp at 5 h: pH 6.8, RC membrane", "experimental": "(§3) The apparent permeability coefficients were measured at 37 °C with the help of a vertical-type Franz diffusion cell (PermeGear, Inc., Hellertown, PA, USA). The experimental setup was the same as it was described in our previous study, where the excess amount of the investigated substance was placed in glass cups with ground-in lids. The required volume of buffer pH 6.8 without and with a predetermined concentration of the excipient (F127 or SBE-β-CD in the present study) was added, and the suspension was mixed overnight and filtered to obtain a clear solution. The concentration of this solution was determined and used for the further calculation of the permeability coefficient. […] The membrane was mounted between the donor and receptor chambers of the Franz cell. The effective surface area of the membrane was 0.785 cm^2. Each experiment lasted 5 h. The donor solution was permanently mixing with a magnetic stirrer at a constant rate. The aliquots of the receptor solution (0.5 mL) were withdrawn every 30 min and promptly replaced with the same volume of the fresh buffer.\n(§4) The apparent permeability coefficients were taken as the average values of no less than three replicas. […]\n(§5) The authors underlined that when different excipients, such as cyclodextrins or micelle-forming polymers, are used, it is necessary to obtain “true” permeability values by a correction of permeability coefficients for the free drug concentration. In this study, the free drug concentration in the presence of F127 and SBE-β-CD was assessed indirectly through the equilibrium solubility experiments at all the excipient concentrations (Table 2)."}, "[8]": {"assay": "In vitro permeability, Franz diffusion cell, polydimethylsiloxane–polycarbonate membrane", "format": "in vitro ADME", "conditions": "37 °C; for C0free (free CBZ concentration in the donor solution, C0free=C0·ffree): PDS membrane experiment; for Papp at 5 h: pH 6.8, PDS membrane", "experimental": "as §3, §4, §5"}, "[9]": {"parameters": "method as in PMID 19403275", "conditions": "1.33 mmol·L^−1 (1%) F127 solution; 37 °C; cited from earlier work"}, "[10]": {"conditions": "cited from earlier work"}, "[11]": {"parameters": "method as in PMID 21415539", "conditions": "water to 1-octanol; pH 7.4 of the aqueous phase; cited from earlier work"}, "[12]": {"assay": "Viscosity of F127 and SBE-β-CD solutions, Vibro Viscometer", "format": "physicochemical", "conditions": "37 °C", "experimental": "The viscosity of F127 and SBE-β-CD solutions at concentrations used for the permeability experiments (1.0 w/v%, 2.0 w/v%, and 3.0 w/v%) was measured with the help of SV series Vibro Viscometer (A&D Company Ltd., Tokyo, Japan) with a high accuracy of 1% (standard deviation).\nIn turn, with SBE-β-CD in the donor solution, the Pappcalc values are somewhat lower with RC and higher with PDS membranes than the experimental Papp values. These findings allow the proposal of additional mechanisms that influence permeability, going beyond the model approach which primarily relied on solubility for quantitatively predicting permeability. The underestimation of the permeability through the PDS membrane with SBE-β-CD can probably be attributed to the specific interaction of anionic cyclodextrin with PDS, as it was underlined above. In addition, as it was reported in [57], decreased diffusivity can be attributed to the increased viscosity of the donor solution upon the acceleration of the excipient concentration. […] Fischer et al. proposed that just a change in the viscosity of the aqueous donor compartment might be the reason of the decreased permeability of carboxyfluorescein in the non-ionic surfactant poloxamer 188. To support the obtained results, the dynamic viscosity […] of the dissolution medium was measured at the experimental temperature of 37 °C and listed in Table S4. As expected, the viscosity was increased both with F127 and SBE-β-CD in solution."}, "[13]": {"conditions": "expressed per mass of excipient"}, "[14]": {"conditions": "excipient concentration expressed in kg∙L^−1"}, "[15]": {"conditions": "excipient concentration expressed in molarity"}, "[16]": {"conditions": "F127 1.33 mmol·L^−1, buffer pH 6.8, read-out: Papp (apparent permeability coefficient)"}, "[17]": {"conditions": "F127 1.83 mmol·L^−1, buffer pH 6.8, read-out: Papp (apparent permeability coefficient)"}, "[18]": {"conditions": "F127 2.30 mmol·L^−1, buffer pH 6.8, read-out: Papp (apparent permeability coefficient)"}, "[19]": {"conditions": "SBE-β-CD 6.89 mmol·L^−1, buffer pH 6.8, read-out: Papp (apparent permeability coefficient)"}, "[20]": {"conditions": "SBE-β-CD 13.78 mmol·L^−1, buffer pH 6.8, read-out: Papp (apparent permeability coefficient)"}, "[21]": {"conditions": "SBE-β-CD 20.67 mmol·L^−1, buffer pH 6.8, read-out: Papp (apparent permeability coefficient)"}, "[22]": {"conditions": "pure buffer pH 6.8 (0 mmol·L^−1 excipient), read-out: Pabs (absolute permeability coefficient, Pabs=J/C0free)"}, "[23]": {"conditions": "pure buffer pH 6.8 (0 mmol·L^−1 excipient), read-out: Papp (apparent permeability coefficient)"}}, "note": "Several values for one entry are separate records, joined by “and”; a condition that tells them apart may be missing. Equal entries are not always repeated. Where two headings read alike, the source gives them in different places.", "data": [{"molecule": "NC(=O)N1c2ccccc2C=Cc2ccccc21", "note": "[CBZ, carbamazepine]", "values": [{"measurement": "solubility thermodynamic", "setting": "[1]", "value": 830, "unit": "µM"}, {"measurement": "CBZ/F127 micellar association constant (Ka)", "setting": "[2]", "value": "2374.2 (±118.7) M^−1"}, {"measurement": "CBZ/F127 micellar association constant (Ka)", "setting": "[2]; [13]", "value": "65.5 (±3.27) L∙kg^−1"}, {"measurement": "Apparent stability constant of CBZ/SBE-β-CD complex (Kc)", "setting": "[3]", "value": "395.9 (±15.8) M^−1 and 395.9 M^−1"}, {"measurement": "Apparent stability constant of CBZ/SBE-β-CD complex (Kc)", "setting": "[3]; [13]", "value": "247.5 (±5.23) L∙kg^−1"}, {"measurement": "Partition coefficient KF127/buf", "setting": "[4]; [14]", "value": "58.54 (±0.86)"}, {"measurement": "Partition coefficient KF127/buf", "setting": "[4]; [15]", "value": "737.63 (±10.90)"}, {"measurement": "Partition coefficient KSBE-β-CD/buf", "setting": "[5]; [14]", "value": "205.11 (±0.51)"}, {"measurement": "Partition coefficient KSBE-β-CD/buf", "setting": "[5]; [15]", "value": "297.67 (±0.75)"}, {"measurement": "logP", "setting": "[6]", "value": 3.47}, {"measurement": "C0free (free CBZ concentration in the donor solution, C0free=C0·ffree)", "setting": "[7]; F127 1.33 mmol·L^−1", "value": 473, "unit": "µM"}, {"measurement": "C0free (free CBZ concentration in the donor solution, C0free=C0·ffree)", "setting": "[7]; F127 1.83 mmol·L^−1", "value": 377, "unit": "µM"}, {"measurement": "C0free (free CBZ concentration in the donor solution, C0free=C0·ffree)", "setting": "[7]; F127 2.30 mmol·L^−1", "value": 473, "unit": "µM"}, {"measurement": "C0free (free CBZ concentration in the donor solution, C0free=C0·ffree)", "setting": "[7]; SBE-β-CD 6.89 mmol·L^−1", "value": 446, "unit": "µM"}, {"measurement": "C0free (free CBZ concentration in the donor solution, C0free=C0·ffree)", "setting": "[7]; SBE-β-CD 13.78 mmol·L^−1", "value": 388, "unit": "µM"}, {"measurement": "C0free (free CBZ concentration in the donor solution, C0free=C0·ffree)", "setting": "[7]; SBE-β-CD 20.67 mmol·L^−1", "value": 559, "unit": "µM"}, {"measurement": "Papp at 5 h", "setting": "[7]; [16]", "value": 32.2, "unit": "×10⁻⁶ cm/s"}, {"measurement": "Papp at 5 h", "setting": "[7]; [17]", "value": 26.6, "unit": "×10⁻⁶ cm/s"}, {"measurement": "Papp at 5 h", "setting": "[7]; [18]", "value": 20.3, "unit": "×10⁻⁶ cm/s"}, {"measurement": "Papp at 5 h", "setting": "[7]; [19]", "value": 20.5, "unit": "×10⁻⁶ cm/s"}, {"measurement": "Papp at 5 h", "setting": "[7]; [20]", "value": 13.4, "unit": "×10⁻⁶ cm/s"}, {"measurement": "Papp at 5 h", "setting": "[7]; [21]", "value": 12.4, "unit": "×10⁻⁶ cm/s"}, {"measurement": "Papp at 5 h", "setting": "[7]; [22]", "value": 55.5, "unit": "×10⁻⁶ cm/s"}, {"measurement": "Papp at 5 h", "setting": "[7]; [23]", "value": 55.5, "unit": "×10⁻⁶ cm/s"}, {"measurement": "C0free (free CBZ concentration in the donor solution, C0free=C0·ffree)", "setting": "[8]; F127 1.33 mmol·L^−1", "value": 464, "unit": "µM"}, {"measurement": "C0free (free CBZ concentration in the donor solution, C0free=C0·ffree)", "setting": "[8]; F127 1.83 mmol·L^−1", "value": 378, "unit": "µM"}, {"measurement": "C0free (free CBZ concentration in the donor solution, C0free=C0·ffree)", "setting": "[8]; F127 2.30 mmol·L^−1", "value": 312, "unit": "µM"}, {"measurement": "C0free (free CBZ concentration in the donor solution, C0free=C0·ffree)", "setting": "[8]; SBE-β-CD 6.89 mmol·L^−1", "value": 440, "unit": "µM"}, {"measurement": "C0free (free CBZ concentration in the donor solution, C0free=C0·ffree)", "setting": "[8]; SBE-β-CD 13.78 mmol·L^−1", "value": 514, "unit": "µM"}, {"measurement": "C0free (free CBZ concentration in the donor solution, C0free=C0·ffree)", "setting": "[8]; SBE-β-CD 20.67 mmol·L^−1", "value": 500, "unit": "µM"}, {"measurement": "Papp at 5 h", "setting": "[8]; [16]", "value": 0.286, "unit": "×10⁻⁶ cm/s"}, {"measurement": "Papp at 5 h", "setting": "[8]; [17]", "value": 0.253, "unit": "×10⁻⁶ cm/s"}, {"measurement": "Papp at 5 h", "setting": "[8]; [18]", "value": 0.214, "unit": "×10⁻⁶ cm/s"}, {"measurement": "Papp at 5 h", "setting": "[8]; [19]", "value": 0.127, "unit": "×10⁻⁶ cm/s"}, {"measurement": "Papp at 5 h", "setting": "[8]; [20]", "value": 0.0796, "unit": "×10⁻⁶ cm/s"}, {"measurement": "Papp at 5 h", "setting": "[8]; [21]", "value": 0.0565, "unit": "×10⁻⁶ cm/s"}, {"measurement": "Papp at 5 h", "setting": "[8]; [22]", "value": 0.567, "unit": "×10⁻⁶ cm/s"}, {"measurement": "Papp at 5 h", "setting": "[8]; [23]", "value": 0.567, "unit": "×10⁻⁶ cm/s"}, {"measurement": "Solubility of CBZ", "setting": "[9]", "value": 1430, "unit": "µM"}, {"measurement": "Stability constant of CBZ with SBE-β-CD", "setting": "[10]; unbuffered double distilled water, 30 °C, ref 48 Jain et al.", "value": 498.04, "unit": "M⁻¹"}, {"measurement": "Stability constant of CBZ with SBE-β-CD", "setting": "[10]; undefined pH and temperature, ref 49 Smith et al.", "value": 1035, "unit": "M⁻¹"}, {"measurement": "P (partition coefficient water/1-octanol)", "setting": "[11]", "value": 380.19}]}, {"molecule": "sulfobutylether-β-cyclodextrin [SBE-β-CD]", "values": [{"measurement": "Viscosity", "setting": "[12]; SBE-β-CD 6.89 mmol·L-1 donor solution", "value": 0.72, "unit": "mPa·s"}, {"measurement": "Viscosity", "setting": "[12]; SBE-β-CD 13.78 mmol·L-1 donor solution", "value": 0.75, "unit": "mPa·s"}, {"measurement": "Viscosity", "setting": "[12]; SBE-β-CD 20.67 mmol·L-1 donor solution", "value": 0.8, "unit": "mPa·s"}]}]}
